Reference: paper PMC6017588, “Synthesis and Structure-Activity Relationships of LP1 Derivatives: N-Methyl-N-phenylethylamino Analogues as Novel MOR Agonists” (Molecules : A Journal of Synthetic Chemistry and Natural …, 2018)
Structures can show the parent of a compound that is named as a salt. Where two headings read alike, the source gives them in different places.

How the values were obtained:
DOR [1] = biological target: T1, DOR (Rattus norvegicus, UniProt P33533); assay: DOR competitive radioligand binding ([3H]-DPDPE displacement, rat brain membranes)
T1 construct: from tissue; host or cells: rat brain membranes

KOR [2] = biological target: T2, KOR (Cavia porcellus, UniProt P41144); assay: KOR competitive radioligand binding ([3H]-(+)-U69,593 displacement, guinea pig brain membranes)
T2 construct: from tissue; host or cells: guinea pig brain membranes

MOR [3] = biological target: T3, MOR (Rattus norvegicus, UniProt P33535); assay: Inhibition of forskolin-stimulated cAMP accumulation in HEK293 cells stably expressing MOR; format: cell-based; conditions: for Emax: maximal percent inhibition of cAMP accumulation, read-out: Imax (%) ± SD MOR
Method: As typical Gi/o coupled receptor, MOR, DOR and KOR signals are mediated by AC inhibition.
(§1) Cell culture. HEK293 cells stably expressing either the EE-tagged MOR or the flag-tagged KOR [20, 21, 22] were grown in Dulbecco’s modified Eagle’s medium (DMEM) supplemented with 10% fetal calf serum, 2 mM glutamine, 100 U/mL penicillin, and 0.1 mg/mL streptomycin under 5% CO2 at 37 °C.
(§2) Measurements of cAMP accumulation. Measurements of AC activity were performed as described by Papakonstantinou et al. or the GloSensor cAMP Assay (Promega) following the Manufacturer’s instructions. The generation of cAMP was assessed in response to treatment of the cells with various concentrations of the appropriate ligand (10 pM–50 μΜ) using 50 μΜ forskolin at 37 °C. Values are means ± SD of triplicate determinations from three independent experiments. Analysis of the data was performed using Origin 7.5 software (OriginLab Corporation, Northampton, MA, USA).

KOR [4] = biological target: T4, KOR (Homo sapiens, UniProt P41145); assay: Inhibition of forskolin-stimulated cAMP accumulation in HEK293 cells stably expressing KOR; format: cell-based; conditions: for cAMP inhibition / Imax (%) ± SD KOR: HEK293-KOR; for cAMP inhibition: only at very high concentrations, not dose-dependent; for Imax (%) ± SD KOR: maximal percent inhibition of cAMP accumulation
T4 construct: FLAG; expressed in transfected cells
Method: As typical Gi/o coupled receptor, MOR, DOR and KOR signals are mediated by AC inhibition. Given the significant MOR and moderate KOR affinity, to examine the functional role of target compounds, in opioid receptor signaling, the ability of 5a–d and 6a–d to affect forskolin-stimulated AC activity in HEK293 cells stably expressing the MOR or KOR was tested and the results are reported in Table 2.
as §1, §2

MOR [5] = biological target: T3, MOR; assay: MOR competitive radioligand binding ([3H]-DAMGO displacement, rat brain membranes); design: from tissue; host or cells: rat brain membranes
[6] = test system: acute thermal nociception; assay: Radiant heat tail flick test in mice; format: in vivo, mouse
Method: The MOR agonist 5c was evaluated for acute agonistic effects in mice. In detail, it was tested for its ability to produce antinociception in the mouse tail flick test at the dose-range of 1–7 mg/kg intraperitoneal (ip) injected. The compound produced a dose-dependent analgesic effect compared to the group of mice treated with saline (* p < 0.05 vs. saline-treated mice).
Animals. Male Swiss […] mice (Envigo Laboratories, S. Pietro al Natisone (UD), Italy) weighing 25–30 g were housed six to a cage. Animals were kept at a constant room temperature (25 ± 1 °C) under a 12:12 h light and dark cycle with free access to food and water. Each mouse was used for only one experiment.
Nociceptive Test. Nociception was evaluated by the radiant heat tail-flick test. Briefly, it consisted of irradiation of the lower third of the tail with an infrared source (Ugo Basile, Comerio, Italy). The day before the experiment, mice were habituated to the procedure for measuring nociception threshold. Experiments were performed at room temperature (25 ± 1 °C). The basal pre-drug latency was established between 3 and 5 s and was calculated as the average of the first three measurements, which were performed at 5 min intervals. A cut-off latency of 15 s was established to minimize damage to the tail. All tested compounds were dissolved in pyrogen-free isotonic saline (Baxter Healthcare, Deerfield, IL, USA) and DMSO (5%) and were administered to mice ip. Post-treatment tail flick latencies (TFLs) were determined at 30, 45, 60, 75 and 90 min after ip injection.
Statistical Analysis. All values were presented as means ± SD. Intergroup comparisons were assessed using an initial two-way analysis of variance (ANOVA) followed by Duncan’s multiple range post-hoc test. Differences were considered significant when * p < 0.05. Effective dose-50 (ED50) values were calculated using least-squares linear regression analysis followed by calculation of 95% confidence limits (95% CL) by the method of Bliss.

DOR [7] = test system: DOR; design: method as in PMID 20599386; conditions: earlier work; read-out: IC50 DOR (intrinsic activity); cited from earlier work
[8] = design: method as in PMID 22100511, PMID 22580287; conditions: in vivo tested; cited from earlier work

C[C@H]1[C@H]2Cc3ccc(O)cc3[C@]1(C)CCN2CCNc1ccccc1 (as salt: oxalate) [5a, (2R,6R,11R)-3-(2-Anilinoethyl)-6,11-dimethyl-1,2,3,4,5,6-hexahydro-2,6-methano-3-benzazocin-8-ol]
melting point: 145 to 146 °C

CCN(CCCN1CC[C@@]2(C)c3cc(O)ccc3C[C@@H]1[C@@H]2C)c1ccccc1 [6d, (2R,6R,11R)-6,11-Dimethyl-{3-[ethyl(phenyl)amino]propyl}-1,2,3,4,5,6-hexahydro-2,6-methano-3-benzazocin-8-ol]
Ki (DOR [1]): 1060 ± 152 nM | Ki (KOR [2]): 56 ± 1.7 nM | Emax (MOR [3]): 40 ± 2% | cAMP inhibition (KOR [4]): 30% | Ki (MOR [5]): 86 ± 3 nM

Oc1ccc2c3c1O[C@H]1c4[nH]c5ccccc5c4C[C@@]4(O)[C@@H](C2)N(CC2CC2)CC[C@]314 [Naltrindole, reference compound]
Ki (DOR [1]): 1.13 ± 0.1 nM

C[C@H]1[C@H]2Cc3ccc(O)cc3[C@]1(C)CCN2CCNC1CCCCC1 (as salt: oxalate) [5b, (2R,6R,11R)-3-[2-(Cyclohexylamino)ethyl)-6,11-dimethyl-1,2,3,4,5,6-hexahydro-2,6-methano-3-benzazocin-8-ol]
melting point: 153 to 155 °C

C[C@H]1[C@H]2Cc3ccc(O)cc3[C@]1(C)CCN2CCCNc1ccccc1 [6a, (2R,6R,11R)-3-(3-Anilinopropyl)-6,11-dimethyl-1,2,3,4,5,6-hexahydro-2,6-methano-3-benzazocin-8-ol]
Ki (DOR [1]): 117 ± 5.2 nM | Ki (KOR [2]): 71 ± 2 nM | Emax (MOR [3]): 50 ± 3% | IC50 (KOR [4]): 1400 ± 69 nM | Imax (%) ± SD KOR (KOR [4]): 53 ± 4% | Ki (MOR [5]): 7 ± 0.6 nM

C[C@H]1[C@H]2Cc3ccc(O)cc3[C@]1(C)CCN2CCCN(C)c1ccccc1 [6c, (2R,6R,11R)-6,11-Dimethyl-{3-[methyl(phenyl)amino]propyl}-1,2,3,4,5,6-hexahydro-2,6-methano-3-benzazocin-8-ol]
Ki (DOR [1]): > 5000 nM | Ki (KOR [2]): 94 ± 3.5 nM | Emax (MOR [3]): 50 ± 3% | cAMP inhibition (KOR [4]): 30% | Ki (MOR [5]): 68 ± 1.6 nM

C[C@H]1[C@H]2Cc3ccc(O)cc3[C@]1(C)CCN2CCN(C)c1ccccc1 [5c, (2R,6R,11R)-6,11-Dimethyl-{2-[methyl(phenyl)amino]ethyl}-1,2,3,4,5,6-hexahydro-2,6-methano-3-benzazocin-8-ol]
Ki (DOR [1]): 147 ± 5.7 nM | Ki (KOR [2]): 31 ± 1.3 nM | Functional profile at MOR (MOR [3]; cAMP accumulation): MOR agonist | Emax (MOR [3]): 72% | cAMP inhibition (KOR [4]): 30% | ED50 ([6]; 0.75 h, mouse tail flick, ip, 45 min post-treatment, read-out: ED50 (95% CL)): 4.33 mg/kg | Time of maximal antinociceptive activity ([6]; after ip injection, mouse tail flick): 45 min | Duration of significant antinociceptive activity ([6]; highest dose (7 mg/kg ip), after injection): 75 min | Effect of naloxone pretreatment on antinociception ([6]; naloxone 3 mg/kg sc, 30 min prior to 5c, data not shown): prevented its antinociceptive effect | Ki (MOR [5]): 6.1 ± 0.5 nM

C[C@H]1[C@H]2Cc3ccc(O)cc3[C@]1(C)CCN2CCCNC1CCCCC1 (as salt: oxalate) [6b, (2R,6R,11R)-3-[3-(Cyclohexylamino)propyl)-6,11-dimethyl-1,2,3,4,5,6-hexahydro-2,6-methano-3-benzazocin-8-ol]
melting point: 136 to 138 °C

CCN(CCCN1CC[C@@]2(C)c3cc(O)ccc3C[C@@H]1[C@@H]2C)c1ccccc1 (as salt: oxalate) [6d, (2R,6R,11R)-6,11-Dimethyl-{3-[ethyl(phenyl)amino]propyl}-1,2,3,4,5,6-hexahydro-2,6-methano-3-benzazocin-8-ol]
melting point: 138 to 139 °C

C[C@H]1[C@H]2Cc3ccc(O)cc3[C@]1(C)CCN2CCCN(C)c1ccccc1 (as salt: oxalate) [6c, (2R,6R,11R)-6,11-Dimethyl-{3-[methyl(phenyl)amino]propyl}-1,2,3,4,5,6-hexahydro-2,6-methano-3-benzazocin-8-ol]
melting point: 140 to 142 °C

CCN(CCN1CC[C@@]2(C)c3cc(O)ccc3C[C@@H]1[C@@H]2C)c1ccccc1 [5d, (2R,6R,11R)-6,11-Dimethyl-{2-[ethyl(phenyl)amino]ethyl}-1,2,3,4,5,6-hexahydro-2,6-methano-3-benzazocin-8-ol]
Ki (DOR [1]): 411 ± 14 nM | Ki (KOR [2]): 28.7 ± 1 nM | Emax (MOR [3]): 55 ± 3% | cAMP inhibition (KOR [4]): 30% | Ki (MOR [5]): 160 ± 7 nM

C[C@@H](NC(=O)[C@@H](N)Cc1ccc(O)cc1)C(=O)NCC(=O)N(C)[C@@H](Cc1ccccc1)C(=O)NCCO [DAMGO, reference compound]
Emax (MOR [3]): 73 ± 0.3%

C[C@H]1[C@H]2Cc3ccc(O)cc3[C@]1(C)CCN2CCCNC1CCCCC1 [6b, (2R,6R,11R)-3-[3-(Cyclohexylamino)propyl)-6,11-dimethyl-1,2,3,4,5,6-hexahydro-2,6-methano-3-benzazocin-8-ol]
Ki (DOR [1]): > 5000 nM | Ki (KOR [2]): 126 ± 4.5 nM | IC50 (KOR [4]): > 5000 nM | Imax (%) ± SD KOR (KOR [4]): 44 ± 3% | Ki (MOR [5]): 48 ± 1.4 nM

CCN(CCN1CC[C@@]2(C)c3cc(O)ccc3C[C@@H]1[C@@H]2C)c1ccccc1 (as salt: oxalate) [5d, (2R,6R,11R)-6,11-Dimethyl-{2-[ethyl(phenyl)amino]ethyl}-1,2,3,4,5,6-hexahydro-2,6-methano-3-benzazocin-8-ol]
melting point: 158 to 160 °C

C[C@H]1[C@H]2Cc3ccc(O)cc3[C@]1(C)CCN2CCCNc1ccccc1 (as salt: oxalate) [6a, (2R,6R,11R)-3-(3-Anilinopropyl)-6,11-dimethyl-1,2,3,4,5,6-hexahydro-2,6-methano-3-benzazocin-8-ol]
melting point: 149 to 150 °C

C[C@H]1[C@H]2Cc3ccc(O)cc3[C@]1(C)CCN2CCC(=O)Nc1ccccc1 [LP1, reference compound]
Ki (DOR [1]; [3H]DPDPE displacement, rat brain membranes, read-out: Ki (nM) ± SEM DOR): 29.1 ± 1 nM | Ki (KOR [2]; [3H]U69,593 displacement, guinea pig brain membranes, read-out: Ki (nM) ± SEM KOR): 110 ± 6 nM | Emax (MOR [3]): 73 ± 3.8% | IC50 (DOR [7]): 12 nM | ED50 (analgesia) [8]: 2.03 mg/kg | Ki (MOR [5]; [3H]DAMGO displacement, rat brain membranes, read-out: Ki (nM) ± SEM MOR): 0.83 ± 0.05 nM

C[C@H]1[C@H]2Cc3ccc(O)cc3[C@]1(C)CCN2CCNC1CCCCC1 [5b, (2R,6R,11R)-3-[2-(Cyclohexylamino)ethyl)-6,11-dimethyl-1,2,3,4,5,6-hexahydro-2,6-methano-3-benzazocin-8-ol]
Ki (DOR [1]): 70 ± 2 nM | Ki (KOR [2]): 19.8 ± 0.9 nM | Emax (MOR [3]): 28 ± 1% | IC50 (KOR [4]): 180 ± 50 nM | Imax (%) ± SD KOR (KOR [4]): 58 ± 4% | Ki (MOR [5]): 8.3 ± 0.8 nM

C[C@H]1[C@H]2Cc3ccc(O)cc3[C@]1(C)CCN2CCNc1ccccc1 [5a, (2R,6R,11R)-3-(2-Anilinoethyl)-6,11-dimethyl-1,2,3,4,5,6-hexahydro-2,6-methano-3-benzazocin-8-ol]
Ki (DOR [1]): 270 ± 10 nM | Ki (KOR [2]): 100 ± 5 nM | Emax (MOR [3]): 60 ± 4% | IC50 (KOR [4]): 1000 ± 65 nM | Ki (MOR [5]): 83 ± 30 nM
